Laboratory results from PubChem BioAssay AID1963839 (Molecular Pharmacology Branch, DTP, NCI, 2024).
“And” between values parts separate entries of the source, which are not always exact repeats. Equal entries are not always repeated.

Tested on: 817829-284-R-J1-PDC complex spheroid viability
Assay: Anticancer human tumor 817829-284-R-J1-PDC patient-derived colon adenocarcinoma cell line growth inhibition [POLQ]
Conditions: for viability, T/C: stronger effect = lower value
Procedure: Multicellular complex tumor spheroid response to Polymerase (POL) inhibitors (novobiocin, ART-558, RP6685) in combination with a variety of drugs and investigational agents in selected tumor cell lines
The POL inhibitors (novobiocin, ART-558, and RP6685) were evaluated both individually and in combination with standard of care and investigational anticancer small molecules within a complex spheroid model of solid tumors. . Complex spheroids include a stromal component modeled by human endothelial cells (HUVEC) and fibroblasts modeled by human mesenchymal stem cells (MSCs). The concentration ranges selected for each drug and investigational agent were based upon clinically achievable concentrations if the clinical Cmax of the agent was known.
Compounds. The drugs and investigational agents: novobiocin (NSC847541), ART-558 (NSC835418), RP-6685 (NSC848927), peposertib (NSC802822), ceralasertib (NSC780249), elimusertib (NSC800525), camonsertib (NSC841442), AZD-1390 (NSC803789), olaparib (NSC753686), talazoparib (NSC767125), rucaparib (NSC756644), sotorasib (NSC818433), MRTX-1133 (NSC836407), SN-38 (NSC673596), topotecan (NSC609699), epotoside (NSC141540), doxorubicin (NSC123127), gemcitabine (NSC613327), 5-fluorouracil (NSC19893), paclitaxel (NSC125973), vemurafenib (NSC761431), MSA-2 (NSC828583), SN-011 (NSC837082), adavosertib (NSC754352), prexasertib (NSC758257), carboplatin (NSC241240) and oxaliplatin (NSC266046), were obtained from the National Cancer Institute (NCI) Developmental Therapeutics Program Chemical Repository (21). The FDA-approved anticancer drug set is available from the Developmental Therapeutics Program at https://dtp.cancer.gov/organization/dscb/obtaining/. […] The stock solutions were prepared in dimethyl sulfoxide (DMSO, Sigma-Aldrich, St. Louis, MO, cat. D2650), except for the platinum compounds which were prepared in saline (Quality Biological, Gaithersburg, MD, cat. 114-055-101), at 800-fold the tested concentration and stored at -70 degrees C prior to their use. All drugs and investigational agents were tested over a range starting from a high concentration at or near the clinical Cmax and decreasing in half-log increments. If the clinical Cmax for an agent had not been determined, the highest concentration tested was 10 microM, except for SN-38, which was tested at a high concentration of 1 microM.
Cell Culture. All cells were maintained in an incubator at 37 degrees C and 5% CO2 with 95% humidity. The PDC lines were cultured according to standard operating procedures established by the NCI PDMR (https://pdmr.cancer.gov). Table 3 of the manuscript, lists the cell lines along with the number of the three cell types plated to form the mct-spheroids and media for tumor cell growth. After thawing, all PDC lines, except 997537-175-T-J1-PDC and 415267-285-R-J2-PDC, were cultured in Matrigel-coated flasks prepared with a working solution of 1X Ham's F-12 nutrient mix, without supplementation (Thermo Fisher Scientific, cat. 11765054), 100 U/mL penicillin-streptomycin (Thermo Fisher Scientific, cat. 15140122), and 2.5% Matrigel (Corning Inc., Corning, NY, cat. 354248) for the first three passages. The two PDC lines 997537-175-T-J1-PDC and 415267-285-R-J2-PDC were cultured on uncoated flasks. The 857933-349-R-J2-PDC line was cultured in 6C/Colon 1B media containing advanced DMEM/F-12 (Thermo Fisher Scientific, cat. 12634028), 10 mM HEPES (Thermo Fisher Scientific, cat. 15630080), 1X GlutaMAX supplement (Thermo Fisher Scientific, cat. 35050061), 0.1 mg/mL primocin (InvivoGen, San Diego, CA, cat. ant-pm-2), 10% defined fetal bovine serum, heat inactivated (HyClone Laboratories Inc., Logan, UT, cat. SH30070.03HI), 50% L-WRN conditioned media (ATCC, cat. CRL-3276), 1.25 mM N-Acetyl-L-cysteine (Sigma-Aldrich, cat. A9165), 10 mM nicotinamide (Sigma-Aldrich, cat. N0636), 1X B-27 supplement (Thermo Fisher Scientific, cat. 17504044), 1X N-2 supplement (Thermo Fisher Scientific, cat. […]

[1] = compound alone, run of 11/27/2023
[2] = compound alone, run of 12/05/2023
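Note: spheroids exposed to compounds for 7 days.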
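Throughout, for viability, T/C: 100% = DMSO vehicle-treated spheroids.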

Row | Structure (SMILES) | viability, T/C (compound 0.0316 µM) | viability, T/C (compound 0.1 µM) | viability, T/C (compound 0.316 µM) | viability, T/C (compound 1 µM) | viability, T/C (compound 3.16 µM) | viability, T/C (compound 10 µM) | IC50 (curve of compound) | IC50 [1] [µM] | IC50 [2] [µM]
1 | C#Cc1c(F)ccc2cc(O)cc(-c3ncc4c(N5CC6CCC(C5)N6)nc(OCC56CCCN5CC(F)C6)nc4c3F)c12 (stereo not drawn) | 95.2% and 94.8% and 96% | 84.6% and 98.2% and 122% | 72% and 98.1% and 118% | 88.4% and 89% and 92.8% | 90.2% and 111% and 115% | 53.8% and 102% and 54.2% | > 10 µM |  | 
2 | CC1COCCN1c1cc(C2(O)CC3CCC(C2)O3)c2cnn(-c3ccn[nH]3)c2n1 (stereo not drawn) | 25.2% and 23.3% and 30.1% | 8.33% and 10.7% and 8.37% | 4.72% and 4.82% and 4.13% | 3.5% and 3.16% and 3.44% | 3.23% and 3.58% and 4.19% | 2.41% and 1.97% and 3.04% | < 0.0316 µM |  | 
3 | CCc1cc2c(N3CCc4c(cc(Cn5ccnc5)cc4-c4cn(C)nc4C(F)(F)F)C3=O)cc(C)nc2c(OC)n1 | 88.4% and 75.3% and 76.3% | 85.8% and 83.5% and 79.4% | 75.3% and 63.8% and 69.3% | 80.6% and 56.1% and 65.8% | 46.4% and 44.7% and 47.9% | 33.1% and 29.7% and 30.8% | 2.8 µM and 1.74 µM and 2.83 µM |  | 
4 | COC1C(OC(N)=O)C(O)C(Oc2ccc3c(O)c(NC(=O)c4ccc(O)c(CC=C(C)C)c4)c(=O)oc3c2C)OC1(C)C (stereo not drawn) |  |  |  |  |  |  |  | > 10 | 
5 | COc1cc2cc(C(=O)CCC(=O)O)sc2cc1OC | 114% and 112% and 90.4% | 88.4% and 107% and 83.7% | 94% and 105% and 84% | 81.1% and 89.5% and 102% | 100% and 110% and 98.6% | 88.8% and 101% and 63.2% | > 10 µM |  | 
6 | Cc1cccc(N(C)C(=O)C2C(O)CCN2c2nc(C)cc(C(F)(F)F)c2C#N)c1 (stereo not drawn) |  |  |  |  |  | 99.5% [middle of 13 runs] |  | > 10 | > 10
7 | Nc1ccc(C#CCN(C(=O)Cc2ncc(C(F)(F)F)cc2C(F)(F)F)c2ccc(F)cc2)nn1 |  |  |  |  | 97.9% [middle of 13 runs] | 99.7% [middle of 13 runs] |  |  | > 10
8 | O=C(Nc1ccc(O)c(NS(=O)(=O)c2ccc(F)cc2)c1)c1ccc(-c2ccccc2)cc1 | 94% and 91.9% and 101% | 96.5% and 104% and 103% | 93.7% and 100% and 103% | 92.4% and 99.3% and 78.3% | 73.5% and 88.2% and 76.5% | 38.7% and 41.5% and 39.8% | 6.88 µM and 8.17 µM and 7.07 µM |  | 
9 | O=C(c1cc(Cc2n[nH]c(=O)c3ccccc23)ccc1F)N1CCN(C(=O)C2CC2)CC1 |  |  |  |  |  | 22.3% and 7.71% and 32.7% |  |  | 
